# Measured values: ChEMBL document CHEMBL1201862, “PubChem BioAssay data set” (2004)
#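 How tested: cells in 96-well plates exposed to compound for 48 hours at five concentrations. GI50 marks 50% less growth.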 The source made the active and inactive calls. No stated cut-off is given here; in the data, active = GI50 up to about 1.1 µM and inactive = higher.
# Legend:
# Assay in all cases: NCI anticancer screen, dose series, 48 h
# NCI-H522 = test system: NCI-H522
# K562 = test system: K562
# Malme-3M = test system: Malme-3M
# HOP-18 = test system: HOP-18
# MCF7 = test system: MCF7
# HCT-116 = test system: HCT-116
# DLD-1 = test system: DLD-1
# IGROV-1 = test system: IGROV-1
# SF-268 = test system: SF-268
# XF498 = test system: XF498
# OVCAR-5 = test system: OVCAR-5
# SK-MEL-2 = test system: SK-MEL-2
# DMS-273 = test system: DMS-273
# KM-20L2 = test system: KM-20L2
# ACHN = test system: ACHN
# SR = test system: SR
# LXFL 529 = test system: LXFL 529
# DU-145 = test system: DU-145
# MDA-MB-435 = test system: MDA-MB-435
# MDA-N = test system: MDA-N
SMILES,GI50 (NCI-H522),GI50 (K562),GI50 (Malme-3M),GI50 (HOP-18),GI50 (MCF7),GI50 (HCT-116),GI50 (DLD-1),GI50 (IGROV-1),GI50 (SF-268),GI50 (XF498),GI50 (OVCAR-5),GI50 (SK-MEL-2),GI50 (DMS-273),GI50 (KM-20L2),GI50 (ACHN),GI50 (SR),GI50 (LXFL 529),GI50 (DU-145),GI50 (MDA-MB-435),GI50 (MDA-N)
C[C@H]1[C@@H]2C[C@@H]3O[C@@]34[C@H]3CCC5Cc6nc7c(nc6C[C@@]5(C)[C@]3(O)CC(=O)[C@@]24CO[C@]12OC(C)(C)C[C@@H]2O)CC1CC[C@@H]2C3=C[C@H]4O[C@@]5(OC(C)(CO)C[C@@H]5O)[C@H](C)[C@@]4(O)[C@]3(C)[C@@H](O)CC2[C@]1(C)C7 (some centres not stated),0.0955 µM (active),0.0266 µM (active),0.0381 µM (active),> 3.52 µM (inactive),0.0345 µM (active),0.0583 µM (active),0.191 µM (active),0.0291 µM (active),0.0181 µM (active),0.00769 µM (active),0.0343 µM (active),0.0239 µM (active),0.00345 µM (active),0.0378 µM (active),–,–,–,–,–,–
O=C(O)CCCCCCCCC(=O)O [SEBACIC ACID],> 500 µM (inactive),> 500 µM (inactive),> 500 µM (inactive),387 µM (inactive),> 377 µM (inactive),> 500 µM (inactive),108 µM (inactive),> 500 µM (inactive),> 500 µM (inactive),3.62 µM (inactive),> 500 µM (inactive),> 500 µM (inactive),50 µM (inactive),> 50 µM (inactive),–,–,–,–,–,–
CCC1CN2CCC1CC2 (configuration not stated),> 100 µM (inactive),> 100 µM (inactive),> 100 µM (inactive),> 100 µM (inactive),> 100 µM (inactive),> 100 µM (inactive),> 100 µM (inactive),> 100 µM (inactive),> 100 µM (inactive),> 100 µM (inactive),> 100 µM (inactive),> 100 µM (inactive),> 100 µM (inactive),> 100 µM (inactive),–,–,–,–,–,–
COc1cc(C(C)c2cc3c(cc2OCCO)OCO3)cc(OC)c1OC (configuration not stated),0.547 µM (active),0.486 µM (active),> 100 µM (inactive),> 100 µM (inactive),–,1.38 µM (inactive),1.71 µM (inactive),0.832 µM (active),3.9 µM (inactive),< 0.01 µM (active),> 100 µM (inactive),2 µM (inactive),0.413 µM (active),1.43 µM (inactive),10.1 µM (inactive),0.299 µM (active),2.77 µM (inactive),–,–,–
COc1c(Cl)cc(S(=O)O)cc1Cl,> 100 µM (inactive),> 100 µM (inactive),> 100 µM (inactive),–,–,> 100 µM (inactive),> 100 µM (inactive),–,> 100 µM (inactive),> 100 µM (inactive),> 100 µM (inactive),> 100 µM (inactive),–,–,> 100 µM (inactive),–,> 100 µM (inactive),–,–,–
CC(C)CCC1CC2C(=O)N(c3ccccc3)C(=O)C2c2[nH]c3ccccc3c21 (configuration not stated),–,0.571 µM (active),0.871 µM (active),7.06 µM (inactive),–,–,2.18 µM (inactive),13.4 µM (inactive),2.05 µM (inactive),0.206 µM (active),17.5 µM (inactive),–,0.281 µM (active),–,6.07 µM (inactive),3.4 µM (inactive),6.05 µM (inactive),–,–,–
COc1cc(C2c3[nH]c4ccccc4c3[C@@H](Nc3ccc(F)cc3)[C@H]3COC(=O)N23)cc(OC)c1O (some centres not stated),–,1.45 µM (inactive),2.49 µM (inactive),–,0.622 µM (active),1.89 µM (inactive),–,1.32 µM (inactive),1.55 µM (inactive),–,1.79 µM (inactive),–,–,–,0.248 µM (active),–,–,0.759 µM (active),2.5 µM (inactive),2.3 µM (inactive)
O=C1C[C@@H](C(=O)OCc2ccccc2)NC(=O)C[C@@H](C(=O)OCc2ccccc2)NC(=O)C[C@@H](C(=O)OCc2ccccc2)N1,36.6 µM (inactive),4.16 µM (inactive),–,–,> 100 µM (inactive),> 84.1 µM (inactive),–,98.6 µM (inactive),15.2 µM (inactive),–,> 100 µM (inactive),13 µM (inactive),–,–,23 µM (inactive),4.06 µM (inactive),–,> 100 µM (inactive),> 100 µM (inactive),> 100 µM (inactive)
CN1C[C@H]2[C@@H](C1=O)[C@H](c1ccccc1)ON2C,> 100 µM (inactive),> 100 µM (inactive),–,–,> 100 µM (inactive),> 100 µM (inactive),–,> 100 µM (inactive),–,–,> 100 µM (inactive),> 100 µM (inactive),–,–,> 100 µM (inactive),> 100 µM (inactive),–,> 100 µM (inactive),> 100 µM (inactive),> 100 µM (inactive)
